One series addresses T1, IKBKE (Homo sapiens, UniProt Q14164).
T1 construct: purchased
T1 sequence (Q14164 1-716): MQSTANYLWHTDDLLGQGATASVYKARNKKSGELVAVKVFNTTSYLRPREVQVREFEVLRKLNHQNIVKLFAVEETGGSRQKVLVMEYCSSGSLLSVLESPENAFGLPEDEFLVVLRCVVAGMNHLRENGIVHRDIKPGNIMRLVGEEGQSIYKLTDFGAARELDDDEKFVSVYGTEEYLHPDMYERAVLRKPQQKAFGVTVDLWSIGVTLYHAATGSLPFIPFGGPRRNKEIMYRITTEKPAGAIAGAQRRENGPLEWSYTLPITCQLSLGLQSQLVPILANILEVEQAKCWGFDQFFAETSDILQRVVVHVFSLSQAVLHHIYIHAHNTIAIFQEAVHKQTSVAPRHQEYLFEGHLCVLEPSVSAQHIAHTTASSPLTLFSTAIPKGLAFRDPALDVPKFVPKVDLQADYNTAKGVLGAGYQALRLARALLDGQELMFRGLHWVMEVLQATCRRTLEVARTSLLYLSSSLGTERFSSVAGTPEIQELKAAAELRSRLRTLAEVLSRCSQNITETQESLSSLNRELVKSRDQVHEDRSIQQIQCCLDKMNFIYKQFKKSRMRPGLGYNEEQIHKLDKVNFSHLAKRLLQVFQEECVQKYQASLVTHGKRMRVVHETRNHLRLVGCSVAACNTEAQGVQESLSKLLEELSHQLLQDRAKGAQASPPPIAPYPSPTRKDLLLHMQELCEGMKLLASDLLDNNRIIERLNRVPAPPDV
The series can be described thus: filter binding kinase assay. It counts as biochemical. The conditions noted are these: derived from % inhibition at 1 μM. The method, boiled down: (§1)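 Compound was pre-incubated with enzyme and substrate for 5 minutes at room temperature, then the reaction was started with ATP (added solution at 5, 20 or 50 […] depending on kinase). Orthophosphoric acid stopped it, and phosphorylated substrate captured on P81 filters was quantified by scintillation counting.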

The target of a further series is T2, MAPK9 (Homo sapiens, UniProt P45984).
T2 construct: purchased
T2 sequence (P45984 whole entry, species assumed): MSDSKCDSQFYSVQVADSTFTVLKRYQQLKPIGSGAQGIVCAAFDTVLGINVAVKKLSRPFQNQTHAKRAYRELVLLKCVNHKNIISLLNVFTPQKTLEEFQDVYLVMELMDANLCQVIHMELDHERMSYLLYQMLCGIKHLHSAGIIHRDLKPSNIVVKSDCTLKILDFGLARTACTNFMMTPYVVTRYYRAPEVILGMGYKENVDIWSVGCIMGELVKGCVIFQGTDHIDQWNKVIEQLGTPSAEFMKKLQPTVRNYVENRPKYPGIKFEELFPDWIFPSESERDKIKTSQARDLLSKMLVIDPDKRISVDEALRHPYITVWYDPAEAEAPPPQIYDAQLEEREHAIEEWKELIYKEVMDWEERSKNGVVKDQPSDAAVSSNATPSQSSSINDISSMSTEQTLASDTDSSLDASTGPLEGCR
The series can be described thus: filter binding kinase assay. It counts as biochemical. The conditions noted are these: derived from % inhibition at 1 μM. The method, boiled down:
as §1

In a further series the target is T3, MAPK1 (Homo sapiens, UniProt P28482).
T3 construct: purchased
T3 sequence (P28482 whole entry, species assumed): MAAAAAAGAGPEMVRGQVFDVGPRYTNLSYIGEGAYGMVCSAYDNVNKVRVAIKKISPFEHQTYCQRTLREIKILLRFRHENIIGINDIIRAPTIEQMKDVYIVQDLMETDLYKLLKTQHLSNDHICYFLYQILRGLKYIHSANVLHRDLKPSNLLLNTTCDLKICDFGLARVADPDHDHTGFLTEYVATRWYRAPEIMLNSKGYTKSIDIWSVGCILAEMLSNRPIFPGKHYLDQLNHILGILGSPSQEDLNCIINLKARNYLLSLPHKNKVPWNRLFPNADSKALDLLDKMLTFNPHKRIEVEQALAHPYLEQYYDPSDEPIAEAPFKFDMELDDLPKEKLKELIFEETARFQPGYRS
The series can be described thus: filter binding kinase assay. The conditions noted are these: derived from % inhibition at 1 μM; first MAPK1 line. It counts as biochemical. The method, boiled down:
as §1

A further series has as its target T4, PDPK1 (Homo sapiens, UniProt O15530).
T4 construct: purchased
T4 sequence (O15530 1-556): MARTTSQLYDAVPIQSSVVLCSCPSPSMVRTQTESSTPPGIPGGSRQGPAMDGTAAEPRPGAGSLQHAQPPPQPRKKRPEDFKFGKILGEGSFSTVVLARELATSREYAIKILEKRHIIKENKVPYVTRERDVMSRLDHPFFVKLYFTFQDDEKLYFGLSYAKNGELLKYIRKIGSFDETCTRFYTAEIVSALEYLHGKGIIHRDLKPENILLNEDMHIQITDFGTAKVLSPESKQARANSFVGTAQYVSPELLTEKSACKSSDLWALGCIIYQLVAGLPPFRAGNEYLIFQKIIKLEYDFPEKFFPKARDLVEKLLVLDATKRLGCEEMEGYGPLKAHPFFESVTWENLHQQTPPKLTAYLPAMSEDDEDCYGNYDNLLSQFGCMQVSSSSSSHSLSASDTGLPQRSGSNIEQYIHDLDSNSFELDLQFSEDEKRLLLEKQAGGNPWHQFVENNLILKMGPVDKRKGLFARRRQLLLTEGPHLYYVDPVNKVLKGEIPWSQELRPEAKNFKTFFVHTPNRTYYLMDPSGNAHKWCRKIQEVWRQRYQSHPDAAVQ
As to the kind of experiment: filter binding kinase assay (second PDPK1 line). The conditions noted are these: derived from % inhibition at 1 μM. It counts as biochemical. The protocol: (§2) All kinase assays were carried out using the Multidrop 384 from Thermo-Fisher at room temperature in a total assay volume of 25.5 μl. 15 μl of an enzyme mix comprising enzyme and substrate in buffer are added to the test batch comprising either 0.5 μl of test substance, DMSO control or empty container. Test substances are pre-incubated in the presence of the enzyme and substrate for 5 minutes before the reaction is initiated by addition of 10 μl of ATP (concentration kinase-dependent of […]). The reaction is terminated by addition of 5 μl of orthophosphoric acid (50 mM). The test containers are then transferred onto P81 Unifilter plates by means of a “Packard Harvester” and dried in air. The dry Unifilter plates are sealed after the addition of MicroScint O, and the radioactivity is determined in a Packard Topcount NXT.

Another series concerns the target MAPK8 (Homo sapiens, UniProt P45983). The series can be described thus: filter binding kinase assay (second MAPK8 line). It is filed as biochemical. The conditions noted are these: read-out: residual kinase activity MAPK8. The protocol:
as §2

Each structure is given as a SMILES string.

MAPK8, sequence (P45983 whole entry): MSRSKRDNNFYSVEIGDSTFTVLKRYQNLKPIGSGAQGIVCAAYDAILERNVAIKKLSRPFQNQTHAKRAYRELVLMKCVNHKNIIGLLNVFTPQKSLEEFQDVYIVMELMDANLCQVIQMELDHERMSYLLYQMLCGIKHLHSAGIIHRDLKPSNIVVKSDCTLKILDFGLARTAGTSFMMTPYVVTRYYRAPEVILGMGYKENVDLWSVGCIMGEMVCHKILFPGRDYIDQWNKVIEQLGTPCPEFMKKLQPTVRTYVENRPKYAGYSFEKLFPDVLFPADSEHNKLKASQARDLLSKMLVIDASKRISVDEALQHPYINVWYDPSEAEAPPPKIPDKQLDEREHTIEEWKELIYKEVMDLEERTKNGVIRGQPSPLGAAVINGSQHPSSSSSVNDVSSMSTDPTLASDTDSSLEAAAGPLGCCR

By IC50 is commonly meant the concentration needed to halve the response being measured. A lower IC50 goes with greater potency. As to `Nc1ncsc1C#Cc1cccc(O)c1` [Compound A27, 3-(4-aminothiazol-5-ylethynyl)phenol], the IC50 is greater than 1 µM on IKBKE, 1 to 10 µM on MAPK9, 1 to 10 µM on MAPK1 and greater than 1 µM on PDPK1.

In the case of `CC(C)(C)OC(=O)Nc1ncsc1C#CCN1C(=O)c2ccccc2C1=O` [Compound A26, tert-butyl{5-[3-(1,3-dioxo-1,3-dihydroisoindol-2-yl)prop-1-ynyl]-thiazol-4-yl}carbamate], the IC50 at IKBKE is 10 to 100 µM; on MAPK9, greater than 1 µM; on MAPK1, 10 to 100 µM; on PDPK1, 10 to 100 µM.

Regarding `CC(C)(C)OC(=O)Nc1nc(-c2ccncc2)sc1C#CCN1CCOCC1` [Compound A25, tert-butyl[5-(3-morpholin-4-ylprop-1-ynyl)-2-pyridin-4-ylthiazol-4-yl]-carbamate], the IC50 is 1 to 10 µM at IKBKE, greater than 1 µM at MAPK9, greater than 1 µM at MAPK1 and greater than 1 µM on PDPK1.

The melting point is the temperature, or range, at which the solid turns liquid. Compound `c1ccc(Cc2c[nH]c3ncsc23)cc1` [Compound A7, 6-benzyl-4H-pyrrolo[2,3-d]thiazole] gave a melting point of 133 to 135 °C. This compound had an IC50 at IKBKE of 10 to 100 µM. For the same compound, the IC50 at MAPK9 is 10 to 100 µM. The same compound yielded an IC50 at MAPK1 greater than 1 µM. For the same compound, the IC50 on PDPK1 is greater than 1 µM.

Consider `Nc1ncsc1C#Cc1cnc2[nH]ccc2c1` [Compound A22, 5-(1H-pyrrolo[2,3-b]pyridin-5-ylethynyl)thiazol-4-ylamine], for which the IC50 at IKBKE was greater than 1 µM; at MAPK9, greater than 1 µM; at MAPK1, 10 to 100 µM; on PDPK1, 1 to 10 µM. The remaining activity at 1 µM at MAPK8 was found to be 34%.
